Experimental data reported in patent US20250296971A1, “GASTRIC INHIBITORY PEPTIDE RECEPTOR LIGANDS” (priority 2021, published 2025).
Like-named read-outs stand apart in the source and are kept apart here. *1 amine or outer side, *2 acyl side, *3 side chain or, on linkers, in order; H or OH if unused. Where a SMILES comes first, the peptide text is derived from it. Bridges are numbered along the chain shown (N, C = ends). [ ]: non-standard residue; d: D form. The star is where a group is joined. X13 = O=C(CN1CCN2CCN3CCN(CC1)CC(=O)[O][Lu]([O]C(=O)C2)[O]C(=O)C3)NCCCOCCOCCOCCCN*; DOTA(In) = O=C1CN2CCN3CCN(CC(=O)*)CCN(CC2)CC(=O)[O][In]([O]1)[O]C(=O)C3; X3 = O=C(O)CN1CCN(CC(=O)O)CCN(CC(=O)NCCCOCCOCCOCCCN*)CCN(CC(=O)O)CC1; Trp(5-Br) = N[C@@H](Cc1c[nH]c2ccc(Br)cc12)C(=O)O; Trp(5-Cl) = N[C@@H](Cc1c[nH]c2ccc(Cl)cc12)C(=O)O; Pyridine(2,6-diCH2) = c1cc(C[*:1])nc(C[*:2])c1; X4 = O=C(NCCN[*:2])c1cccc(C[*:1])c1; X6 = c1cc(CSCCN[*:2])nc(C[*:1])c1; X7 = c1cc(CSCCN[*:2])cc(C[*:1])c1; Cya = N[C@@H](CS(=O)(=O)O)C(=O)O; Hyp = O=C(O)[C@@H]1C[C@@H](O)CN1; X1 = O=C(CN1CCC(N[*:1])CC1)[*:2]; Suc = O=C(CCC(=O)[*:2])[*:1]; hSer = N[C@@H](CCO)C(=O)O; Api = NC1(C(=O)O)CCNCC1; Thp = NC1(C(=O)O)CCOCC1; Aib = CC(C)(N)C(=O)O

Key:
[1] = target: T1, GIPR (CHO-K1-hGIPR cells) (Homo sapiens, UniProt P48546); assay: FACS binding assay
T1 construct: host or cells: CHO-K1
T1 sequence (P48546 22-466): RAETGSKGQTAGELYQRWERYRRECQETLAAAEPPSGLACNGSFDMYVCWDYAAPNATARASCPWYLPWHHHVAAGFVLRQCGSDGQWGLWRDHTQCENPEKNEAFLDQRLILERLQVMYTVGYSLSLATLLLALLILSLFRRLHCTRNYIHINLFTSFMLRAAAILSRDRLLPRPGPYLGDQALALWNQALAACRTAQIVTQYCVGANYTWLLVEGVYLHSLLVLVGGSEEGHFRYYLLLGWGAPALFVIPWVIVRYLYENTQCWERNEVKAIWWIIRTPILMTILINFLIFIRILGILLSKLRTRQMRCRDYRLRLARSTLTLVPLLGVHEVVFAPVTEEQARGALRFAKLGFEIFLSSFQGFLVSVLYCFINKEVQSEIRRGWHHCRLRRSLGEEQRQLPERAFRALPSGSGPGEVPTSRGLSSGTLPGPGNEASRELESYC
Procedure, shortened: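 Median fluorescence in the APC channel, measured on washed CHO-K1 cells overexpressing human GIPR, was fitted by four-parameter logistic regression against peptide concentration to yield EC50 or IC50 values. Secondary labelling used APC-streptavidin (1 μg/mL, 30 min, ice).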

[2] = target: T2, human GIP receptor (bioGIPR) (Homo sapiens, UniProt P48546); assay: Surface plasmon resonance (SPR) based binding assay; conditions: for t1/2 Category: SPR dissociation half-life
T2 construct: Biotinylate extracellular of the human GIP receptor (bioGIPR, Proteros biostructures GmbH, lot #02/2b); purchased Proteros biostructures GmbH lot #02/2b
T2 sequence (P48546 22-138 limits assumed): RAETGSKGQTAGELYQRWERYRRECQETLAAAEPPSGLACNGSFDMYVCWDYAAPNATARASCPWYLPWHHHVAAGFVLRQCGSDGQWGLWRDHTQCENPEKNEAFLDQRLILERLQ
Procedure, shortened: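 Binding was measured at 25 °C by single-cycle kinetics against a reference flow cell, with blank-run and drift correction, after capturing biotinylated GIPR extracellular domain to ~3500 RU. Running buffer: HBST, 0.1% DMSO. A 1:1 Langmuir model gave kinetic rates, KD, t1/2 and pKD.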

[3] = competition with 20 nM GIP-057, 4° C., 1 hour, read-out: pIC50 Category (converted)
[4] = SPR, Single Cycle Kinetic mode, 25° C., 1:1 Langmuir binding model, read-out: pKD Category (converted)
[5] = pIC50 Category, competition with 20 nM GIP-057, 4° C., 1 hour
[6] = Single Cycle Kinetic mode, 25° C.

`CC[C@H](C)[C@@H]1NC(=O)[C@H](CC(C)C)NC(=O)C(C)(C)NC(=O)[C@@H](NC(=O)[C@@H](CC(C)C)NC(=O)[C@H](CCC(=O)O)NC(=O)[C@@H]2CCCN2C(=O)[C@H](Cc2c[nH]c3ccc(Cl)cc23)NC(=O)[C@H](Cc2c[nH]c3ccccc23)NC(=O)[C@H](CC(=O)O)NC(=O)CN2CCC(NC(=O)CN3CCN4CCN5CCN(CC3)CC(=O)[O][In]([O]C(=O)C4)[O]C(=O)C5)CC2)CSCc2cccc(c2)CSCCNC1=O` [GIP-153, InDOTA-APAc-Asp-Trp-5Clw-Pro-Glu-leu-[Cys(3MeBn)-Aib-Leu-Ile-AET]] ({DOTA(In)}-[X1]DW[Trp(5-Cl)]PE[dL]C[Aib]LI; linker 8-C via X7) was tested, and the IC50 [1, 3] was less than 10 nM and the Kd [2, 4] was less than 1 nM.

`CC[C@H](C)[C@@H]1NC(=O)[C@H](CC(C)C)NC(=O)C2(CCOCC2)NC(=O)[C@@H](NC(=O)[C@@H](CC(C)C)NC(=O)[C@H](CCC(=O)O)NC(=O)[C@@H]2C[C@@H](O)CN2C(=O)[C@H](Cc2c[nH]c3ccc(Cl)cc23)NC(=O)[C@H](Cc2c[nH]c3ccccc23)NC(=O)[C@H](CC(=O)O)NC(=O)CN2CCC(NC(=O)CN3CCN4CCN5CCN(CC3)CC(=O)[O][In]([O]C(=O)C4)[O]C(=O)C5)CC2)CSCc2cccc(n2)CSCCNC1=O` [GIP-155, InDOTA-APAc-Asp-Trp-5Clw-Hyp-Glu-leu-[Cys(2Lut)-Thp-Leu-Ile-AET]] ({DOTA(In)}-[X1]DW[Trp(5-Cl)][Hyp]E[dL]C[Thp]LI; linker 8-C via X6) gave an IC50 [1, 3] of less than 10 nM and a Kd [2, 4] of less than 1 nM.

With `CC[C@H](C)[C@@H]1NC(=O)[C@H](CC(C)C)NC(=O)C(C)(C)NC(=O)[C@@H](NC(=O)[C@@H](CC(C)C)NC(=O)[C@H](CCC(=O)O)NC(=O)[C@@H]2CCCN2C(=O)[C@H](Cc2c[nH]c3ccc(Cl)cc23)NC(=O)[C@H](Cc2c[nH]c3ccccc23)NC(=O)[C@H](CC(=O)O)NC(=O)CCC(=O)NCCCOCCOCCOCCCNC(=O)CN2CCN3CCN4CCN(CC2)CC(=O)[O][Lu]([O]C(=O)C3)[O]C(=O)C4)CSCc2cccc(c2)CSCCNC1=O` [GIP-167, LuDOTA-Ttds-Asp-Trp-5Clw-Pro-Glu-leu-[Cys(3MeBn)-Aib-Leu-Ile-AET]] ({X13-Suc}-DW[Trp(5-Cl)]PE[dL]C[Aib]LI; linker 7-C via X7) the IC50 [1, 5] was less than 10 nM, the Kd [2] was less than 1 nM and the “t1/2 Category” value [2, 6] was “A (t1/2 values>15 min)”.

`CC[C@H](C)[C@@H]1NC(=O)[C@H](CC(C)C)NC(=O)C2(CCN(C(=O)CN3CCN4CCN5CCN(CC3)CC(=O)[O][In]([O]C(=O)C5)[O]C(=O)C4)CC2)NC(=O)[C@@H](NC(=O)[C@@H](CC(C)C)NC(=O)[C@H](CCC(=O)O)NC(=O)[C@@H]2C[C@@H](O)CN2C(=O)[C@H](Cc2c[nH]c3ccc(Cl)cc23)NC(=O)[C@H](Cc2c[nH]c3ccccc23)NC(=O)CCC(=O)O)CSCc2cccc(n2)CSCCNC1=O` [GIP-169, HO-Succinyl-Trp-5Clw-Hyp-Glu-leu-[Cys(2Lut)-Apc(InDOTA)-Leu-Ile-AET]] (Suc-W[Trp(5-Cl)][Hyp]E[dL]C[Api](DOTA(In))LI; linker 6-C via X6) gave an IC50 [1, 5] of less than 10 nM and a Kd [2, 4] of less than 1 nM.

With `CC[C@H](C)[C@@H]1NC(=O)[C@H](CC(C)C)NC(=O)C(C)(C)NC(=O)[C@@H](NC(=O)[C@@H](CC(C)C)NC(=O)[C@H](CCC(=O)O)NC(=O)[C@@H]2C[C@@H](O)CN2C(=O)[C@H](Cc2c[nH]c3ccc(Cl)cc23)NC(=O)[C@H](Cc2c[nH]c3ccccc23)NC(=O)[C@H](CS(=O)(=O)O)NC(C)=O)CSCc2cccc(n2)CSCCNC1=O` [GIP-179, Ac-Cya-Trp-5Clw-Hyp-Glu-leu-[Cys(2Lut)-Aib-Leu-Ile-AET]] (Ac-[Cya]W[Trp(5-Cl)][Hyp]E[dL]C[Aib]LI; linker 7-C via X6) the IC50 [1, 3] was less than 10 nM and the Kd [2, 4] was less than 1 nM.

With `CC[C@H](C)[C@@H]1NC(=O)[C@H](CC(C)C)NC(=O)C2(CCOCC2)NC(=O)[C@@H](NC(=O)[C@@H](CC(C)C)NC(=O)[C@H](CCC(=O)O)NC(=O)[C@@H]2C[C@@H](O)CN2C(=O)[C@H](Cc2c[nH]c3ccc(Cl)cc23)NC(=O)[C@H](Cc2c[nH]c3ccccc23)NC(=O)[C@H](CO)NC(C)=O)CSCc2cccc(n2)CSC[C@@H](C(N)=O)NC1=O` [GIP-188, Ac-Ser-Trp-5Clw-Hyp-Glu-leu-[Cys(2Lut)-Thp-Leu-Ile-Cys]-NH2] (Ac-SW[Trp(5-Cl)][Hyp]E[dL]C[Thp]LIC-NH2; linker 7-11 via Pyridine(2,6-diCH2)) the IC50 [1, 3] was less than 10 nM, the “t1/2 Category” value [2, 6] was “A (t1/2 values>15 min)” and the Kd [2, 4] was less than 1 nM.

`CC[C@H](C)[C@@H]1NC(=O)[C@H](CC(C)C)NC(=O)C2(CCOCC2)NC(=O)[C@@H](NC(=O)[C@@H](CC(C)C)NC(=O)[C@H](CCO)NC(=O)[C@@H]2C[C@@H](O)CN2C(=O)[C@H](Cc2c[nH]c3ccc(Cl)cc23)NC(=O)[C@H](Cc2c[nH]c3ccccc23)NC(=O)[C@H](CC(=O)O)NC(C)=O)CSCc2cccc(n2)CSC[C@@H](C(N)=O)NC1=O` [GIP-194, Ac-Asp-Trp-5Clw-Hyp-Hse-leu-[Cys(2Lut)-Thp-Leu-Ile-Cys]-NH2] (Ac-DW[Trp(5-Cl)][Hyp][hSer][dL]C[Thp]LIC-NH2; linker 7-11 via Pyridine(2,6-diCH2)) was tested, and the IC50 [1, 3] was less than 10 nM, the “t1/2 Category” value [2, 6] was “A (t1/2 values>15 min)” and the Kd [2, 4] was less than 1 nM.

For `CC[C@H](C)[C@@H]1NC(=O)[C@H](CC(C)C)NC(=O)C2(CCOCC2)NC(=O)[C@@H](NC(=O)[C@@H](CC(C)C)NC(=O)[C@H](CCC(=O)O)NC(=O)[C@@H]2C[C@@H](O)CN2C(=O)[C@H](Cc2c[nH]c3ccc(Br)cc23)NC(=O)[C@H](Cc2c[nH]c3ccccc23)NC(=O)[C@H](CCO)NC(C)=O)CSCc2cccc(n2)CSC[C@@H](C(N)=O)NC1=O` [GIP-197, Ac-Hse-Trp-5Brw-Hyp-Glu-leu-[Cys(2Lut)-Thp-Leu-Ile-Cys]-NH2] (Ac-[hSer]W[Trp(5-Br)][Hyp]E[dL]C[Thp]LIC-NH2; linker 7-11 via Pyridine(2,6-diCH2)), the IC50 [1, 3] was less than 10 nM, the “t1/2 Category” value [2, 6] was “A (t1/2 values>15 min)” and the Kd [2, 4] was less than 1 nM.

For `CC[C@H](C)[C@@H]1NC(=O)[C@H](CC(C)C)NC(=O)C(C)(C)NC(=O)[C@@H](NC(=O)[C@@H](CC(C)C)NC(=O)[C@H](CCC(=O)O)NC(=O)[C@@H]2CCCN2C(=O)[C@H](Cc2c[nH]c3ccc(Cl)cc23)NC(=O)[C@H](Cc2c[nH]c3ccccc23)NC(=O)[C@H](CC(=O)O)NC(=O)CCC(=O)NCCCOCCOCCOCCCNC(=O)CN2CCN(CC(=O)O)CCN(CC(=O)O)CCN(CC(=O)O)CC2)CSCc2cccc(c2)C(=O)NCCNC1=O` [GIP-359, DOTA-Ttds-Asp-Trp-5Clw-Pro-Glu-leu-[Cys(3CbBn)-Aib-Leu-Ile-en]] ({X3-Suc}-DW[Trp(5-Cl)]PE[dL]C[Aib]LI; linker 7-C via X4), the IC50 ([1]; competition with 20 nM GIP-057, 4° C. for 1 hour, read-out: pIC50 Category (converted)) was 10 to 79.4 nM, the “t1/2 Category” value [2, 6] was “C (t1/2 between 5 min and 2.1 min)” and the Kd [2, 4] was 1 to 7.94 nM.
